PubChem BioAssay (NCI)
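Cells were grown in 96-well plates and exposed to each compound for 48 hours at five concentrations; endpoints were interpolated linearly between bracketing concentrations, or set to the highest concentration if not reached. At the GI50, growth is halved. TGI marks complete inhibition of growth.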

System: MDA-MB-468 breast
Assay: NCI-60 cell line screen, 48 h

`CNC(=O)c1cc(-c2ccc(F)cc2)cc(-c2ccc(S(=O)(=O)N3CCCC3)cc2)c1N` was tested, and the GI50 was 5480 nM and the TGI was > 25000 nM.
`COc1ccc(C2C3=C(COC3=O)N(CCO)c3cc4c(cc32)CCC4)cc1` (configuration not stated) gave a GI50 of 1360 nM and a TGI of 5330 nM.
For `O=S(=O)(Nc1ccc(Cl)c(Cl)c1)c1ccc(-c2cnc(C3CC3)o2)cc1`, the GI50 was 222 nM and the TGI was 736 nM.
`COc1ccc(S(=O)(=O)Nc2cc(Sc3cccc4cccnc34)c(O)c3ccccc23)cc1` was tested, and the GI50 was 1150 nM and the TGI was 3120 nM.
`N=C1C=C(N)C(=O)c2ccccc21` showed a GI50 of 112 nM and a TGI of 248 nM.
For `COC(=O)[C@@H](C)C[C@H](Cc1ccccc1)NC(=O)c1csc([C@@H](C[C@H](C(C)C)N(C)C(=O)[C@@H](NC(=O)[C@H]2CCCCN2C)C(C(F)(F)F)C(F)(F)F)OC(C)=O)n1`, the GI50 was 21.3 nM and the TGI was > 16700 nM.
In the case of `CN(C)CCOc1ccc2c(c1)C(=O)/C(=C\c1ncc([N+](=O)[O-])n1C)C2`, the GI50 is reported as 188 nM and the TGI is reported as 516 nM.
In the case of `CS(=O)(=O)CCNCc1ccoc1-c1ccc2ncnc(Nc3ccc(OCc4ccccc4)cc3)c2c1`, the GI50 is reported as 506 nM and the TGI is reported as 4490 nM.
For `CC1=C(SCCC(=O)OC(C[Se]C2=C(C)C(=O)c3ccccc3C2=O)C(=O)NC(C)(C)C)C(=O)c2ccccc2C1=O` (configuration not stated), the GI50 was 226 nM and the TGI was 657 nM.
Compound `Cc1nc2sc(C(=O)Nc3ccccc3)c(N)c2cc1C(=O)c1ccccc1` has a GI50 of 2590 nM and a TGI of 28900 nM.
`COC(=O)c1cc(C)[nH]c2c(C)cc3nc4ccccc4c3c12` showed a GI50 of 3760 nM and a TGI of 12300 nM.
In the case of `C[C@@H]1Cc2c(ccc3[nH]ncc23)[C@@H](c2ccc(NC3CN(CCCF)C3)cn2)N1CC(F)(F)F`, the GI50 is reported as 13400 nM and the TGI is reported as 27800 nM.
In the case of `CC(C)(C)CC(C)(C)NCC(O)COc1ccc(C(C)(C)c2ccc(OCC(O)CNC(C)(C)CC(C)(C)C)cc2)cc1` (configuration not stated), the GI50 is reported as 1310 nM and the TGI is reported as 2770 nM.
`CNc1nc(-c2ccc3c(N)n[nH]c3c2)cc(N2C[C@@H](C(=O)NC3CCCCC3)CC[C@H]2C)n1` was tested, and the GI50 was 270 nM and the TGI was 2440 nM.
In the case of `c1ccc(-c2cc3n4c(-c5ccccc5)nn(-c5ccccc5)c4cnc-3n2)cc1`, the GI50 is reported as 4380 nM and the TGI is reported as > 50000 nM.
`C[C@@H](C[C@H](CCO)c1ccccc1)c1ccc2ccccc2c1` gave a GI50 of 1530 nM and a TGI of 2980 nM.
`N=C(N)c1ccc(-c2ccc(-c3ccc(Cl)cc3Cl)s2)nc1` gave a GI50 of 1720 nM and a TGI of 3410 nM.
`CCCCCCCCc1cc(O)ccc1O` was tested, and the GI50 was 11300 nM and the TGI was 28600 nM.
With `NC1=C(O)C(=O)C(c2c[nH]c3ccc(OCc4ccccc4)cc23)O1` (configuration not stated) the GI50 was > 100000 nM and the TGI was > 100000 nM.
In the case of `C=Cc1cc(OC)c2c(c1)c(=O)oc1c2cc(OC)c2c(O)ccc(C3OC(C(C)O)C(O)C3O)c21` (configuration not stated), the GI50 is reported as 4.91 nM and the TGI is reported as > 1000 nM.
Compound `CC[C@@H](C(=O)[C@@H](C)[C@@H](O)[C@H](C)[C@@H]1O[C@@H]([C@@H](CC)C(=O)O)CC[C@@H]1C)[C@H]1O[C@]2(C=C[C@@H](O)[C@]3(CC[C@@](C)([C@H]4CC[C@](O)(CC)[C@H](C)O4)O3)O2)[C@H](C)C[C@@H]1C` has a GI50 of 197 nM and a TGI of 2440 nM.
With `CCOC(=O)N(O)c1ccc(/C=C/c2ccccc2)cc1` the GI50 was 25 nM and the TGI was 90.8 nM.
Compound `Cn1cc(-c2csc(-c3cn(C(=O)OC(C)(C)C)c4ccccc34)n2)c2cccnc21` has a GI50 of 865 nM and a TGI of 12300 nM.
With `COc1ccc(F)cc1-c1ccnc2[nH]c(C3=CCN(C4CCC(CC(=O)O)CC4)CC3)cc12` (configuration not stated) the GI50 was 77.9 nM and the TGI was 444 nM.
Work on `COc1cc2c(=O)n(CC3CCCCC3)c3c4cc[nH]c4ncc3c2cc1OC` yielded a GI50 of 4610 nM and a TGI of 25600 nM.
Work on `O=C(N/N=C/c1ccc(N(CCCl)CCCl)cc1)c1ccc(C(=O)N/N=C/c2ccc(N(CCCl)CCCl)cc2)cc1` yielded a GI50 of 1600 nM and a TGI of 80600 nM.
